# Patent publication US20250051346A1 (priority 2021, published 2025)
# Read-outs that look alike come from different tables or passages of the source.
# What was measured:
# 5-HT2A [1] = target: T1, 5-HT2A (Homo sapiens, UniProt P28223); experiment: Serotonin 5-HT2A in vitro cellular IPOne agonism assay; type: cell-based; parameters: host or cells: CHO-K1; settings: CHO-K1 cells, 60 min
# Experimental: Serotonin 5-HT2A In Vitro Cellular IPOne Agonism Assay. The 5-HT2A IPOne HTRF assay was performed at Epics Therapeutics S.A. (Belgium, FAST-0505I) using conventional methods. Briefly, CHO-K1 cells expressing human recombinant 5-HT2A receptor grown to mid-log phase in culture media without antibiotics were detached with PBS-EDTA, centrifuged, and resuspended in medium without antibiotics buffer. 20,000 cells are distributed in a 96 well plate and incubated overnight at 37° C. with 5% CO2.
# For agonist testing, the medium was removed and 20 μl of assay buffer plus 20 μl of test compound or reference agonist were added in each well. The plate was incubated for 60 min. at 37° C. with 5% CO2.
# After addition of the lysis buffer containing IP1-d2 and anti-IP1 cryptate detection reagents, plates were incubated 1-hour at room temperature, and fluorescence ratios were measured according to the manufacturer specification, with the HTRF kit.
# 5-HT2A [2] = target: T1, 5-HT2A; experiment: Serotonin 5-HT2A in vitro radioligand binding competition assay; parameters: purchased Epics Therapeutics S.A. (Belgium), contract assay FAST-0505B; host or cells: membrane extracts; settings: [3H]-DOI radiotracer, membrane extracts, read-out: 5HT2A R[…] ACTIVITY
# Experimental: Serotonin 5-HT2A In Vitro Radioligand Binding Competition Assay. The 5-HT2A radioligand binding competition assay was performed at Epics Therapeutics S.A. (Belgium, FAST-0505B) using conventional methods. Briefly, competition binding was performed in duplicate in the wells of a 96 well plate (Master Block, Greiner, 786201) containing binding buffer (optimized for each receptor), membrane extracts (amount of protein/well optimized for each receptor), radiotracer [^3H]-DOI (final concentration optimized for each receptor) and test compound. Nonspecific binding was determined by co-incubation with 200-fold excess of cold competitor. The samples were incubated in a final volume of 0.1 ml at a temperature and for a duration optimized for each receptor and then filtered over filter plates. Filters were washed six times with 0.5 ml of ice-cold washing buffer (optimized for each receptor) and 50 μl of Microscint 20 (Packard) were added in each well. The plates were incubated 15 min on an orbital shaker and then counted with a TopCount™ for 1 min/well.
# T1 sequence (P28223 whole entry): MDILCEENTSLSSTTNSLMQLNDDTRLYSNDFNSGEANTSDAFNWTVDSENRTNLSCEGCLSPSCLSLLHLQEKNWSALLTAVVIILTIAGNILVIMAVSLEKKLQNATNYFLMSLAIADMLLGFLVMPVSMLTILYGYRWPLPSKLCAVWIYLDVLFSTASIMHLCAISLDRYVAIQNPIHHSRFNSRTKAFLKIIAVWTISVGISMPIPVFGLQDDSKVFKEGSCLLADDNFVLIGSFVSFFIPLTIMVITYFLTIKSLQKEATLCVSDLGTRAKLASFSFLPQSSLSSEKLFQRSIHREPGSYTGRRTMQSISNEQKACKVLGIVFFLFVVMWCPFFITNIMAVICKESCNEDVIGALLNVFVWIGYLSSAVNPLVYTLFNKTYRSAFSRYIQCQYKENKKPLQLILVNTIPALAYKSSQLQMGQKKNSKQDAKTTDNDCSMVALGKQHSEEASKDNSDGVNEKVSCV
SMILES,EC50 (5-HT2A [1]; benzofurans),IC50 (5-HT2A [2]; benzofurans),EC50 (5-HT2A [1]; benzothiophenes),IC50 (5-HT2A [2]; benzothiophenes)
"CN1CCCc2oc3cc(OC(F)(F)F)ccc3c2C1 [Compound 53, 2-methyl-8-(trifluoromethoxy)-2,3,4,5-tetrahydro-1H-benzofuro[3,2-c]azepine]",> 10000 nM,> 10000 nM,–,–
"CN1CCCc2oc3cc(OCc4ccccc4)ccc3c2C1 [Compound 54, 8-(benzyloxy)-2-methyl-2,3,4,5-tetrahydro-1H-benzofuro[3,2-c]azepine]",> 10000 nM,101 to 1000 nM,–,–
"CN1CCCc2oc3cccc(OCc4ccccc4)c3c2C1 [Compound 55, 10-(benzyloxy)-2-methyl-2,3,4,5-tetrahydro-1H-benzofuro[3,2-c]azepine]",> 10000 nM,10 to 100 nM,–,–
"c1ccc2c3c(sc2c1)CCNCC3 [Compound 65, 2,3,4,5-tetrahydro-1H-benzo[4,5]thieno[2,3-d]azepine]",–,–,101 to 1000 nM,10 to 100 nM
"FC(F)(F)Oc1ccc2c3c(sc2c1)CCNCC3 [Compound 66, 8-(trifluoromethoxy)-2,3,4,5-tetrahydro-1H-benzo[4,5]thieno[2,3-d]azepine]",–,–,101 to 1000 nM,101 to 1000 nM
"FC(F)(F)Oc1cccc2sc3c(c12)CCNCC3 [Compound 67, 10-(trifluoromethoxy)-2,3,4,5-tetrahydro-1H-benzo[4,5]thieno[2,3-d]azepine]",–,–,10 to 100 nM,10 to 100 nM
"FC(F)(F)Oc1cccc2sc3c(c12)CCN(C1CCC1)CC3 [Compound 68, 3-cyclobutyl-10-(trifluoromethoxy)-2,3,4,5-tetrahydro-1H-benzo[4,5]thieno[2,3-d]azepine]",–,–,1000 to 10000 nM,1000 to 10000 nM
"FC(F)(F)CN1CCc2sc3ccccc3c2CC1 [Compound 69, 3-(2,2,2-trifluoroethyl)-2,3,4,5-tetrahydro-1H-benzo[4,5]thieno[2,3-d]azepine]",–,–,> 10000 nM,> 10000 nM
"COc1ccc2c3c(sc2c1)CCN(CC(F)(F)F)CC3 [Compound 70, 8-methoxy-3-(2,2,2-trifluoroethyl)-2,3,4,5-tetrahydro-1H-benzo[4,5]thieno[2,3-d]azepine]",–,–,> 10000 nM,> 10000 nM
"Fc1ccc2c3c(sc2c1)CCN(CC(F)(F)F)CC3 [Compound 71, 8-fluoro-3-(2,2,2-trifluoroethyl)-2,3,4,5-tetrahydro-1H-benzo[4,5]thieno[2,3-d]azepine]",–,–,> 10000 nM,> 10000 nM
"COc1ccc2c3c(sc2c1)CCN(C1CCC1)CC3 [Compound 74, 3-cyclobutyl-8-methoxy-2,3,4,5-tetrahydro-1H-benzo[4,5]thieno[2,3-d]azepine]",–,–,> 10000 nM,> 10000 nM
"FC(F)(F)Oc1ccc2c3c(sc2c1)CCN(C1CCC1)CC3 [Compound 76, 3-cyclobutyl-8-(trifluoromethoxy)-2,3,4,5-tetrahydro-1H-benzo[4,5]thieno[2,3-d]azepine]",–,–,> 10000 nM,1000 to 10000 nM
"c1ccc(COc2ccc3c4c(sc3c2)CCNCC4)cc1 [Compound 77, 8-(benzyloxy)-2,3,4,5-tetrahydro-1H-benzo[4,5]thieno[2,3-d]azepine]",–,–,> 10000 nM,1000 to 10000 nM
"c1ccc(COc2ccc3c4c(sc3c2)CCN(C2CCC2)CC4)cc1 [Compound 78, 8-(benzyloxy)-3-cyclobutyl-2,3,4,5-tetrahydro-1H-benzo[4,5]thieno[2,3-d]azepine]",–,–,> 10000 nM,1000 to 10000 nM
"CN1CCc2sc3cc(OCc4ccccc4)ccc3c2CC1 [Compound 79, 8-(benzyloxy)-3-methyl-2,3,4,5-tetrahydro-1H-benzo[4,5]thieno[2,3-d]azepine]",–,–,> 10000 nM,101 to 1000 nM
"Oc1ccc2c3c(sc2c1)CCNCC3 [Compound 80, 2,3,4,5-tetrahydro-1H-benzo[4,5]thieno[2,3-d]azepin-8-ol]",–,–,101 to 1000 nM,10 to 100 nM
